From patent publication US5683989A, “Treatment of ischemias by administration of 2,N^6 -substituted adenosines” (Novo Nordisk A/S, priority 1995, dated 1997)

Experiments:
adenosine A1 receptor = target: T1, adenosine A1 receptor (Rattus norvegicus, UniProt P25099); experiment: In vitro binding to adenosine A1 receptor, radioligand [^3 H]-(R)-PIA; details: single determinations only; for Ki: [^3 H]-(R)-PIA radioligand; for Ratio A2 /A1: ratio of A2 Ki to A1 Ki
T1 construct: from tissue
T1 sequence (P25099 1-326): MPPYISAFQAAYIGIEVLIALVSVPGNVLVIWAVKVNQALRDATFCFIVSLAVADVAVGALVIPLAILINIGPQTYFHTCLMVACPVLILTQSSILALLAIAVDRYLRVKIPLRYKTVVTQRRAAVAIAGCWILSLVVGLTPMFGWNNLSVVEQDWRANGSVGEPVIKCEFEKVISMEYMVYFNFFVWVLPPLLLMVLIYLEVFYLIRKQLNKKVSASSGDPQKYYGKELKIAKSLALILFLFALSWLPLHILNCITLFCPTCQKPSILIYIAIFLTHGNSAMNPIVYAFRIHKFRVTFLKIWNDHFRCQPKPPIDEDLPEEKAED
Source text: (§1) Evaluation of in vitro binding to adenosine A1 and A2 receptors
(§2) The methods used are described fully in European Journal of Pharmacology, 1993, 242, 221-228.

A2 receptor = target: T2, A2 receptor (Rattus norvegicus, UniProt P30543); experiment: In vitro binding to adenosine A2 receptor, radioligand [^3 H]-CGS 21680; details: [^3 H]-CGS 21680 radioligand; single determinations only
T2 construct: from tissue
Source text: as §1, §2

A1 receptor = details: literature, in words; cited from earlier work

T2 sequence (P30543 whole entry): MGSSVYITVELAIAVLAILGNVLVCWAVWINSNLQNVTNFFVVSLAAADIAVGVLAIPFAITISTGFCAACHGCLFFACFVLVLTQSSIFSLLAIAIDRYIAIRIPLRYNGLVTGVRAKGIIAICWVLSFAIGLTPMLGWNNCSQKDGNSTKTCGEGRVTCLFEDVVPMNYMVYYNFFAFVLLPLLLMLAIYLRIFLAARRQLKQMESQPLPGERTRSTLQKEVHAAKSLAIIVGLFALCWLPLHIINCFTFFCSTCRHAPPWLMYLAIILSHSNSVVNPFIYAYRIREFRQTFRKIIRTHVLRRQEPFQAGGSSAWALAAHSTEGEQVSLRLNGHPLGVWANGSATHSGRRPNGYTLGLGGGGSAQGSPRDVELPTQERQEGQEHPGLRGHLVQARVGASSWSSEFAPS

Structure (SMILES)	Ki (adenosine A1 receptor) [µM]	Ratio A2 /A1 (adenosine A1 receptor)	Ki (A2 receptor) [µM]	selectivity for the A1 receptor over the A2 receptor (A1 receptor)
C[C@H](CSc1nc2cc(Cl)ccc2s1)Nc1nc(Cl)nc2c1ncn2[C@@H]1O[C@H](CO)[C@@H](O)[C@H]1O [Example 22, 2-Chloro-N-[(R)-1-(5-chloro-2-benzothiazolyl)thio-2-propyl]adenosine]	0.01	100	1	–
C[C@H](CSc1n[nH]c(-c2ccccc2)n1)Nc1nc(Cl)nc2c1ncn2[C@@H]1O[C@H](CO)[C@@H](O)[C@H]1O [Example 27, 2-Chloro-N-{(R)-1-[5-phenyl-(1,2,4-triazol-3-yl)]thio-2-propyl}adenosine]	0.014	355	4.97	–
OC[C@H]1O[C@@H](n2cnc3c(NC4CCCC4)nc(Cl)nc32)[C@H](O)[C@@H]1O [CCPA, 2-chloro-N-cyclopentyladenosine]	–	–	–	most selective for the A1 receptor over the A2 receptor
C[C@H](CSc1nc2ccccc2s1)Nc1nc(F)nc2c1ncn2[C@@H]1O[C@H](CO)[C@@H](O)[C@H]1O [Example 13, N-[(R)-1-(2-Benzothiazolyl)thio-2-propyl]-2-fluoroadenosine]	0.0034	756	2.57	–
Cc1nnc(SC[C@@H](C)Nc2nc(Cl)nc3c2ncn3[C@@H]2O[C@H](CO)[C@@H](O)[C@H]2O)s1 [Example 3, 2-Chloro-N-{(R)-1-[5-methyl-(1,3,4-thiadiazol-2-yl)]thio-2-propyl}adenosine]	0.009	110	0.99	–
C[C@H](CSc1cccs1)Nc1nc(Cl)nc2c1ncn2[C@@H]1O[C@H](CO)[C@@H](O)[C@H]1O [Example 23, 2-Chloro-N-[(R)-1-(2-thienyl)thio-2-propyl]adenosine]	0.0045	38	0.17	–
CC[C@H](CSc1nc2ccccc2s1)Nc1nc(Cl)nc2c1ncn2[C@@H]1O[C@H](CO)[C@@H](O)[C@H]1O [Example 15, N-[(R)-1-(2-Benzothiazolyl)thio-2-butyl]-2-chloroadenosine]	0.007	136	0.95	–
